Assay [1] relates to Pig primary RPE cells. The assay can be described thus: Transepithelial resistance (TER) of RPE monolayers under oxidative stress (H2O2 and serum as source of complement). Format: cell-based. The conditions noted are these: for Mean Diff., Fisher's PLSD for 100 nM effect: treatment / Mean Diff., Fisher's PLSD for nicotine effect: treatment: Significance Level 5%; for Mean Diff., Fisher's PLSD for nicotine effect: treatment: dose response profiles; for dose-response profile of TER preservation: range 5 nM-1 μM; for effect of compound on TER on its own: test compound controls lack H2O2; for EC50: Sus scrofa, RPE, pretreatment 1 hour prior to stressors, tested at 5 nM-1 μM, read-out: ED50 (reduction of oxidative stress-mediated TER loss). The protocol:
Pig primary RPE cells grown as stable monolayers were used for this set of experiments. RPE monolayers were treated with hydrogen peroxide (H2O2) and serum as a source of complement. This treatment is known to result in loss of transepithelial resistance (TER) in RPE cells that is dependent upon reactive oxygen species and superoxide production. […] Combined treatment of two stressors present in AMD (low oxidative stress and complement activation) results in TER loss; whereas each stressor alone has no effect. This loss in TER can be eliminated by pretreatment with superoxide dismutase (SOD) mimetic (MnTBAP). […] FIG. 4 is derived from the maximal effects observed in FIG. 3. […] The higher the resistance, the less injury to the cell. Note that “HI” is “heat inactivated.” Heat inactivates complement, a necessary component to cause injury to the RPE in the presence of peroxides. Pig primary RPE cells were harvested from pigs used for practice surgeries. Cultures were performed described by Ablonczy, Z. and C. E. Crosson, VEGF modulation of retinal pigment epithelium resistance. […] Chemicals. Compounds were tested at 5 nM-1 μM concentration. Compound A-E are as noted herein.

Assay [2] concerns Rat brain endothelial cell line gp8.3 cells. Kind of assay: Alpha 7 ligand modulation of radiation-induced ROS generation. The conditions noted are these: 10 uM ligand for 1 h prior to single dose of 10 Gy; H2DCFDA; FIG. 2. Format: cell-based.
The mark [3] stands for this setting: pairwise comparison versus Compound B.
Where [4] appears, read: pairwise comparison versus Compound C.
Setting [5] is: pairwise comparison versus Compound D.
Setting [6] is: pairwise comparison versus Compound A.

Each structure is given as a SMILES string. Bounds are passed on as bounds.

`CN[C@@]1(C)[C@@H]2CC[C@@H](C2)C1(C)C` [Compound A, exo-S-mecamylamine]: the “Mean Diff., Fisher's PLSD for 100 nM effect: treatment” value in assay [1] (setting [3]) was −14.209; in assay [1] (setting [4]), −16.276; in assay [1] (setting [5]), −6.177. Also, the entries for the “Mean Diff., Fisher's PLSD for nicotine effect: treatment” value in assay [1] (setting [3]), in assay [1] (setting [4]) and in assay [1] (setting [5]) were −16.538, −14.503 and −9.359, respectively. The “dose-response profile of TER preservation” value (from here on “dose-response profile”) in assay [1] (FIG. 4) was “exhibited a dose-response profile over the entire range used”.

As for `Cc1ccc(C(=O)N[C@@H]2C3CCN(CC3)[C@H]2Cc2cccnc2)s1` [Compound B, N-((2S,3R)-2-((pyridin-3-yl)methyl)-1-azabicyclo[2.2.2]oct-3-yl)-5-methylthiophene-2-carboxamide], the “radiation-induced increase in ROS level” value in assay [2] is “blocked radiation-induced increase in ROS level”. The “dose-response profile” value in assay [1] (FIG. 4) is recorded as “plateaued at or around the ED50 level”. In assay [1], the “effect of compound on TER on its own” value is listed as “reduced TER on their own”.

As to `O=C(N[C@@H]1C2CCN(CC2)[C@H]1Cc1cccnc1)c1cc(F)cc(F)c1` [Compound C, N-((2S,3R)-2-((3-pyridinyl)methyl)-1-azabicyclo[2.2.2]oct-3-yl)-3,5-difluorobenzamide], in assay [1] (FIG. 4), the EC50 is below 50 nM and the “dose-response profile” value is recorded as “plateaued at or around the ED50 level”. In assay [1] (setting [3]), the “Mean Diff., Fisher's PLSD for 100 nM effect: treatment” value amounted to 2.066 and the “Mean Diff., Fisher's PLSD for nicotine effect: treatment” value is −2.035. For the same compound, in assay [1] (setting [5]), the “Mean Diff., Fisher's PLSD for 100 nM effect: treatment” value was 10.098 and the “Mean Diff., Fisher's PLSD for nicotine effect: treatment” value is recorded as 5.144. Moreover, the “effect of compound on TER on its own” value in assay [1] is “reduced TER on their own”.

On to `c1cncc(C2CC3CCN2CC3)c1` (stereo not drawn) [Compound D], for which, in assay [1] (setting [3]), the “Mean Diff., Fisher's PLSD for 100 nM effect: treatment” value is recorded as −8.023 and the “Mean Diff., Fisher's PLSD for nicotine effect: treatment” value is reported as −7.179.

In the case of `C(=C\[C@H]1CCNC1)/c1cncnc1` [Compound E, (R)-5-((E)-2-pyrrolidin-3-ylvinyl)pyrimidine], the EC50 in assay [1] (FIG. 4) is around 200 nM. The “Mean Diff., Fisher's PLSD for 100 nM effect: treatment” value was determined as 39.927 in assay [1] (setting [6]), 25.718 in assay [1] (setting [3]), 23.652 in assay [1] (setting [4]) and 33.750 in assay [1] (setting [5]). Moreover, the “Mean Diff., Fisher's PLSD for nicotine effect: treatment” value is listed as 34.222 in assay [1] (setting [6]), 17.682 in assay [1] (setting [3]), 19.717 in assay [1] (setting [4]) and 24.861 in assay [1] (setting [5]).

With `O=C(O)c1ccc(/C2=C3\C=CC(=N3)/C(c3ccc(C(=O)O)cc3)=c3/cc/c4[n]3[Mn]([Cl])[n]3c2ccc3/C(c2ccc(C(=O)O)cc2)=C2/C=CC(=N2)\C=4c2ccc(C(=O)O)cc2)cc1` [MnTBAP, reference compound], the “loss in TER caused by combined stressors” value in assay [1] (pretreatment, low oxidative stress and complement activation) was “eliminated”.

For the compound `CN1CCCC1c1cccnc1` (stereo not drawn) [nicotine, reference compound], the “reduction of oxidative stress-mediated loss of epithelial cell integrity (TER deterioration)” value in assay [1] (H2O2 + serum, dose response, FIG. 4) was “reduces transepithelial resistance (TER) deterioration in the presence of stress in a dose-dependent manner”.

(Values after US20110098312A1, “METHODS FOR PREVENTING THE DEVELOPMENT OF RETINOPATHY BY THE ORAL ADMINISTRATION OF NNR LIGANDS” (Targacept ,Inc, priority 2008, published 2011).)
